Experimental data taken from US20130237496A1, “ACTIVE INGREDIENT OBTAINED FROM CICHORIUM INTYBUS FOR ACTING ON THE BARRIER FUNCTION OF THE SKIN THAT IS SIMILAR TO THAT OF VITAMIN D” (SOCIETE INDUSTRIELLE LIMOUSINE D'APPLICATION BIOLOGIQUE, priority 2012, published 2013).

Key:
Format in all cases: cell-based
Cystatin E/M = test: Expression of RNAm by quantitative PCR in human keratinocytes of aged donors: cystatin E/M; details: 10^−7M, 48 hours
Description: (§1) The object of this study is to evaluate the effect of a Cichorium intybus root hydrolyzate comprising oligofructosans (Example 1) on its capacity to modulate the expression of the RNAm coding for epidermal differentiation proteins: • Kruppel-like factor 4 (KLF4): transcription factor involved in the terminal differentiation of keratinocytes, • Cytokeratin 1 (CK1): components of intermediate keratin filaments, • Involucrin: protein of the cornified envelope, • Cystatin E/M: Inhibitor of lysosomal protease cysteines that are involved in the differentiation of keratinocytes and desquamation. • Kallikrein 5 (KLK5 or SCTE): stratum corneum tryptic enzyme involved in desquamation.
(§2) The study was done by quantitative PCR on normal human keratinocytes obtained from aged donors (age of greater than 60 years), according to the operating procedure described below.
(§3) On D0, the human keratinocytes of aged donors are inoculated and incubated at 37° C.
(§4) The cells are then incubated for 48 hours at 37° C.
(§5) On D4, the cells are recovered, and the total RNA are extracted. The RNA are reverse-transcripts, and the complementary DNA that are obtained are analyzed by quantitative PCR (quantitative polymerase chain reaction).
(§6) The quantification of the incorporation of fluorescence is measured continuously using a thermal cycler, and the relative quantification is carried out using software.

filaggrin = test: Synthesis of filaggrin in reconstructed epidermis from aged human keratinocytes (immunohistological marking)
Description: (§7) The object of this study is to evaluate the capacity of a Cichorium intybus root hydrolyzate comprising oligofructosans to promote the construction of a stratified and functional epidermis starting from aged human keratinocytes obtained by successive replications. First, the young human keratinocytes (passage 1: […] Next, the reconstructed epidermis (RE) is obtained after the young or aged human keratinocytes are cultivated. On D12 and D19, the RE are recovered, fixed, dehydrated and included in paraffin. Sections (4 μm) are then made using a microtome. Next, an HE coloring, and then an immunohistological marking of the filaggrin, terminal differentiation marker, are carried out. The display is produced on a microscope coupled with an image analysis system: • The thickness of the epidermis (living cell layers) is measured on the histological sections after the HE coloring, • The synthesis of the filaggrin is proportional to the intensity of the fluorescence (green color) that is present in the reconstructed epidermis.

[1] = system: Aged reconstructed epidermis; test: Thickness of reconstructed epidermis from aged human keratinocytes (HE coloring)
Description: as §7

[2] = system: Kruppel-like factor 4 (KLF4); test: Expression of RNAm by quantitative PCR in human keratinocytes of aged donors: KLF4; details: 10^−7M, 48 hours
Description: as §1, §2, §3, §4, §5, §6

[3] = system: Kallikrein 5 (KLK5 or SCTE); test: Expression of RNAm by quantitative PCR in normal human keratinocytes: KLK5; details: aged human keratinocytes; 10^−7M; 48 hours
Description: (§8) The study consists in comparing the effect of these different fractions on the expression of the involucrin and the KLK5 by quantitative PCR on normal human keratinocytes, with the result obtained for the active ingredient according to the invention at 1%. The test protocol is the one described in Item II. […]
(§9) The study was done by quantitative PCR on normal human keratinocytes obtained from aged donors (age of greater than 60 years), according to the operating procedure described below. […]
as §5, §6

Involucrin = test: Expression of RNAm by quantitative PCR in normal human keratinocytes: involucrin; details: aged human keratinocytes; 10^−7M; 48 hours
Description: as §8, §9, §5, §6

Cytokeratin 1 (CK1) = test: Expression of RNAm by quantitative PCR in human keratinocytes of aged donors: cytokeratin 1; details: 10^−7M, 48 hours
Description: as §1, §2, §3, §4, §5, §6

C=C1/C(=C\C=C2/CCC[C@]3(C)[C@@H]([C@H](C)CCCC(C)(C)O)CC[C@@H]23)C[C@@H](O)C[C@@H]1O [Calcitriol, calcitriol]
RNAm Level/Control (%) Cystatin E/M (Cystatin E/M): +65% | Synthesis of Filaggrin (×10^4 UA) (filaggrin; D12, 10^−8M): 116 ×10^4 UA | Synthesis of Filaggrin (×10^4 UA) (filaggrin; D19, 10^−8M): 795 (FIG. 2c) ×10^4 UA | Thickness of the Epidermis (μm) ([1]; D12, 10^−8M): 37.8 μm | Thickness of the Epidermis (μm) ([1]; D19, 10^−8M): 58.6 (FIG. 1c) μm | RNAm Level/Control (%) KLF4 [2]: +25% | RNAm Level/Control (%) KLK5 [3]: +26% | RNAm Level/Control (%) Involucrin (Involucrin): +42% | RNAm Level/Control (%) Cytokeratin 1 (Cytokeratin 1 (CK1)): 0%
